The structures appear in SMILES notation. Values after ≈ are worked out from the molar mass of the structure shown.

The subject of this assay is P388. The experiment in a line: Cytotoxicity against mouse P388 cells. Format: functional, cell-based.
The IC50 is the concentration that gives 50% inhibition. As for `CC(=O)O[C@@H]1C[C@@H]2[C@@]3(C)CCCC(C)(C)[C@@H]3CC[C@@]2(C)[C@@H]2C[C@H](O)C3=CC(=O)O[C@@H]3[C@@]12C`, the IC50 came to 2.1 µg/mL (≈ 4.72 µM).

Regarding `CC1(C)CCC[C@]2(C)[C@H]3C[C@@H](O)[C@]4(C)[C@H]5OC(=O)C=C5[C@@H](O)C[C@H]4[C@]3(C)CC[C@@H]12`, the IC50 is 0.4 µg/mL (≈ 0.994 µM).

Compound `CC(=O)OC[C@]1(C)CCC[C@]2(C)[C@H]3CC[C@@]4(C)[C@@H](CC=C5C(=O)O[C@@H](O)[C@@H]54)[C@]3(C)CC[C@@H]12` gave an IC50 of 0.9 µg/mL (≈ 2.02 µM).

For the origin of these results see ChEMBL document CHEMBL1158215, “Three new cytotoxic sesterterpenes from the marine sponge Hyrtios cf. erectus” (J Nat Prod, 1996).
